According to article PMC5614982, “Impact of Gastric H^+/K^+-ATPase rs2733743 on the Intragastric pH-Values of Dexlansoprazole Injection in Chinese Subjects” (Frontiers in Pharmacology, 2017):
Marks after values point to notes of the source that are not given here.

Test system: intragastric pH
Test: 24-h intragastric pH monitoring after single intravenous dexlansoprazole in healthy Chinese subjects
Format: in vivo, human
Conditions: for AUCτ 1−τ 2pH−t: second AUC line
Procedure: Dexlansoprazole injection (30 mg per vial) used in the PK and PD study was manufactured by Nanjing Yoko Pharma Co., Ltd. (Nanjing, China). Subjects received an intravenous infusion of 20 or 30 mg dexlansoprazole injection in sterile saline solution (100 mL/h, 60 min). The study drug was administrated with an infusing pump (SA213, Lifepum, Beijing, China) and given through an intravenous catheter in the antecubital vein opposite to the one from which blood samples were taken.
An ambulatory pH recorder (Orion II, MMS, USA) with a disposable pH catheter (VersaFlex, MMS, USA) was used to monitor intragastric pH. The electrode was placed in water for at least 10 min and then calibrated using standard buffer solutions (pH 1.07 and 7.01) before intubation. Both calibration and intubation processes were conducted under the guidance of MMS Virtual Instructor Program. The catheter, trans nasally placed 10 cm under the lower esophageal sphincter, was identified by a sharp decrease in pH (Wang et al., [2010], [2011]). Subjects were intubated on baseline and the day of dosing at about 7:30 a.m., and the intragastric pH data were recorded continuously for 24 h from 8:00 a.m. Intragastric pH was sampled every second, and the data were stored in a MMS Database program (MMS, USA). The PD parameters including Median (pH), Mean (pH), TpH≥3 (%), TpH≥4 (%), TpH≥6 (%), TpH≥6, and AUC^pH−t were analyzed by the MMS Database program.
Median (pH) and mean (pH) were well-investigated in most studies, and the percentage time of pH ≥ 4 (or pH ≥ 4 holding time ratio) was the benchmark for predicting clinical efficacy of PPIs in treating acid-related diseases (Metz et al., [2009]). Novel parameter TpH≥6 (time to first gastric pH ≥ 6, min) and AUCτ 1-τ 2pH-t (area under pH-time curve from τ1 to τ2, pH·s) were defined to evaluate the velocity and extent of pharmacodynamics with more accuracy. All parameters were calculated and compared according to time periods of 0–24, 0–4, 4–10, 10–14, and 14–24 h post dosing.
The parameter AUCτ 1-τ 2pH-t was calculated as follows:
Where t represented the time duration measured by seconds, AUCτ 1-τ 210-t was the area between the pH line = 10 and the pH-time curve, which was generated by the MMS software.
Baseline-adjusted PD parameters were calculated as follows: for example, ΔAUC^pH−t = AUC^pH−t − AUC^pH−tbaseline, ΔMean (pH) = Mean (pH) − Mean (pH)^baseline, and ΔMedian (pH) = Median (pH) − Median (pH)^baseline.

[1] = 30 mg iv, H+/K+-ATPase Het (n = 10), 0–4 h
[2] = 30 mg iv, H+/K+-ATPase Het (n = 10), 0–24 h
[3] = 30 mg iv, H+/K+-ATPase Het (n = 10), 14–24 h
[4] = 30 mg iv, H+/K+-ATPase Hom (n = 10), 0–4 h
[5] = 30 mg iv, H+/K+-ATPase Hom (n = 10), 0–24 h
[6] = 30 mg iv, H+/K+-ATPase Hom (n = 10), 14–24 h
[7] = 30 mg iv, H+/K+-ATPase WT (n = 8), 0–4 h
[8] = 30 mg iv, H+/K+-ATPase WT (n = 8), 0–24 h
[9] = 30 mg iv, H+/K+-ATPase WT (n = 8), 14–24 h

## Cc1c(OCC(F)(F)F)ccnc1C[S@@+]([O-])c1nc2ccccc2[nH]1 [dexlansoprazole]
[1]
  ΔMedian (pH): 3.3 ± 2.0^c pH
  ΔTpH≥3(%): 52.6 ± 22.2%
  ΔTpH≥4 (%): 51.0 ± 20.6%
  ΔTpH≥6(%): 46.0 ± 33.2%
  AUCτ 1−τ 2pH−t: 727 ± 297 pH·h
[2]
  Mean (pH): 5.9 ± 1.5 pH
  Median (pH): 6.0 ± 1.9 pH
  TpH≥3(%): 81.0 ± 20.9%
  TpH≥4(%): 74.9 ± 25.7%
  TpH≥6(%): 59.2 ± 25.9%
  ΔMean (pH): 3.0 ± 1.0^c pH
  ΔMedian (pH): 4.0 ± 1.6 pH
  ΔTpH≥3(%): 51.8 ± 14.2^c %
  ΔTpH≥4 (%): 54.9 ± 19.1^c %
  ΔTpH≥6(%): 47.2 ± 17.0^c %
[3]
  Mean (pH): 5.1 ± 1.9 pH
  Median (pH): 4.9 ± 2.3 pH
  TpH≥3(%): 72.0 ± 33.7%
  TpH≥4(%): 63.2 ± 38.0%
  TpH≥6(%): 41.0 ± 26.2%
  ΔMean (pH): 1.9 ± 0.9^c pH
  ΔMedian (pH): 2.1 ± 1.9^c pH
  ΔTpH≥3(%): 44.1 ± 21.3^c %
  ΔTpH≥4 (%): 37.7 ± 20.5^c %
  ΔTpH≥6(%): 17.4 ± 11.2^c %
[4]
  Mean (pH): 6.2 ± 0.8 pH
  Median (pH): 7.5 ± 0.6 pH
  TpH≥3(%): 78.0 ± 7.4%
  TpH≥4(%): 73.1 ± 12.6%
  TpH≥6(%): 70.3 ± 14.7%
  ΔMean (pH): 4.2 ± 0.3^a pH
  ΔMedian (pH): 5.8 ± 0.3^a^,^b pH
  ΔTpH≥3(%): 68.4 ± 8.6%
  ΔTpH≥4 (%): 67.5 ± 8.7%
  ΔTpH≥6(%): 67.9 ± 12.4%
[5]
  Mean (pH): 7.0 ± 0.6 pH
  Median (pH): 7.5 ± 0.6 pH
  TpH≥3(%): 95.7 ± 1.3%
  TpH≥4(%): 91.7 ± 4.9%
  TpH≥6(%): 80.2 ± 7.5%
  ΔMean (pH): 4.5 ± 0.7^a^,^b pH
  ΔMedian (pH): 5.5 ± 0.5^a pH
  ΔTpH≥3(%): 75.4 ± 7.6^a^,^b %
  ΔTpH≥4 (%): 79.9 ± 6.6^b %
  ΔTpH≥6(%): 75.3 ± 9.3^a^,^b %
[6]
  Mean (pH): 6.6 ± 0.8 pH
  Median (pH): 6.7 ± 1.1 pH
  TpH≥3(%): 98.5 ± 1.8%
  TpH≥4(%): 91.0 ± 10.4%
  TpH≥6(%): 66.9 ± 17.6%
  ΔMean (pH): 4.0 ± 1.1^b pH
  ΔMedian (pH): 4.7 ± 1.0^b pH
  ΔTpH≥3(%): 84.0 ± 9.1^a^,^b %
  ΔTpH≥4 (%): 80.9 ± 11.2^a^,^b %
  ΔTpH≥6(%): 59.2 ± 21.4^a^,^b %
[7]
  Mean (pH): 5.1 ± 1.4 pH
  Median (pH): 5.6 ± 2.0 pH
  TpH≥3(%): 69.5 ± 24.9%
  TpH≥4(%): 63.3 ± 26.8%
  TpH≥6(%): 46.8 ± 27.3%
  ΔMean (pH): 2.9 ± 1.0^c pH
  ΔMedian (pH): 3.5 ± 1.7^c pH
  ΔTpH≥3(%): 54.0 ± 28.3%
  ΔTpH≥4 (%): 53.6 ± 23.3%
  ΔTpH≥6(%): 42.6 ± 23.6%
  AUCτ 1−τ 2pH−t: 681 ± 248^c pH·h
[8]
  Mean (pH): 5.7 ± 0.9 pH
  Median (pH): 6.0 ± 1.1 pH
  TpH≥3(%): 81.1 ± 14.2%
  TpH≥4(%): 75.6 ± 17.1%
  TpH≥6(%): 57.1 ± 18.8%
  ΔMean (pH): 3.0 ± 1.0^c pH
  ΔMedian (pH): 3.7 ± 1.0^c pH
  ΔTpH≥3(%): 52.6 ± 21.0^c %
  ΔTpH≥4 (%): 57.3 ± 22.3%
  ΔTpH≥6(%): 51.2 ± 17.1^c %
[9]
  Mean (pH): 5.1 ± 1.3 pH
  Median (pH): 4.7 ± 1.7 pH
  TpH≥3(%): 70.7 ± 27.8%
  TpH≥4(%): 62.5 ± 31.5%
  TpH≥6(%): 43.7 ± 25.6%
  ΔMean (pH): 2.6 ± 1.3 pH
  ΔMedian (pH): 2.8 ± 1.7 pH
  ΔTpH≥3(%): 56.6 ± 27.3^c %
  ΔTpH≥4 (%): 50.7 ± 30.9^c %
  ΔTpH≥6(%): 33.3 ± 25.5^c %
20 mg iv, 0–4 h
  AUCτ 1−τ 2pH−t: 501 ± 268 pH·h
20 mg iv, 10–14 h
  AUCτ 1−τ 2pH−t: 784 ± 346 pH·h
20 mg iv, 14–24 h
  AUCτ 1−τ 2pH−t: 942 ± 632 pH·h
30 mg iv, 0–4 h
  AUCτ 1−τ 2pH−t: 793 ± 268 pH·h
30 mg iv, CYP2C19 EM (n = 11), 0–4 h
  AUCτ 1−τ 2pH−t: 762 ± 250 pH·h
30 mg iv, CYP2C19 EMs, H+/K+-ATPase Het (n = 8), 0–4 h
  AUCτ 1−τ 2pH−t: 531 ± 194^c pH·h
30 mg iv, CYP2C19 EMs, H+/K+-ATPase Het (n = 8), 14–24 h
  AUCτ 1−τ 2pH−t: 755 ± 198^c pH·h
30 mg iv, CYP2C19 EMs, H+/K+-ATPase WT (n = 6), 0–4 h
  AUCτ 1−τ 2pH−t: 817 ± 157 pH·h
30 mg iv, CYP2C19 EMs, H+/K+-ATPase WT (n = 6), 14–24 h
  AUCτ 1−τ 2pH−t: 968 ± 553^c pH·h
30 mg iv, CYP2C19 IM (n = 10), 0–4 h
  AUCτ 1−τ 2pH−t: 789 ± 405 pH·h
30 mg iv, CYP2C19 PM (n = 7), 0–4 h
  AUCτ 1−τ 2pH−t: 837 ± 235 pH·h
